Reference: PubChem BioAssay AID328 (DTP/NCI, 2004)
Inconclusive results and toxic doses are left out.

System: BDF1 mice, P388 leukemia ip, median survival T/C
Test: NCI In Vivo Anticancer Drug Screen. Data for tumor model P388 Leukemia (intraperitoneal) in B6D2F1 (BDF1) mice
Settings: endpoint: median survival time, higher = longer survival
Summary of the method: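 T/C = treated-group survival ÷ vehicle-control survival; tumour transplanted into mice before dosing.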

[1] = dose: 50.0 mg/kg/injection, schedule: Q01DX009 (ip), vehicle: saline with Tween-80
[2] = dose: 100.0 mg/kg/injection, schedule: Q01DX009 (ip), vehicle: saline with Tween-80
[3] = dose: 200.0 mg/kg/injection, schedule: Q01DX009 (ip), vehicle: saline with Tween-80
[4] = dose: 400.0 mg/kg/injection, schedule: Q01DX009 (ip), vehicle: saline with Tween-80
[5] = dose: 25.0 mg/kg/injection, schedule: Q04DX003 (ip), vehicle: saline

Compound: CC1(C)OC(C)(C)c2c1nnc(-c1cccc([N+](=O)[O-])c1)[n+]2[O-]
- T/C (dose: 50.0 mg/kg/injection, schedule: Q01DX005 (ip), vehicle: saline with Tween-80): 88 % of control
- T/C (dose: 100.0 mg/kg/injection, schedule: Q01DX005 (ip), vehicle: saline with Tween-80): 93 % of control
- T/C (dose: 200.0 mg/kg/injection, schedule: Q01DX005 (ip), vehicle: saline with Tween-80): 104 % of control

Compound: O=C(O)CCCCCCCCC(=O)O
- T/C [1]: 98 % of control
- T/C [2]: 98 % of control
- T/C [3]: 94 % of control
- T/C [4]: 93 % of control

Compound: Cc1ccc2n[nH]nc2c1
- T/C (dose: 25.0 mg/kg/injection, schedule: Q01DX009 (ip), vehicle: Klucel (hydroxypropylcellulose) (HPC)): 99 % of control
- T/C (dose: 50.0 mg/kg/injection, schedule: Q01DX009 (ip), vehicle: Klucel (hydroxypropylcellulose) (HPC)): 111 % of control
- T/C (dose: 100.0 mg/kg/injection, schedule: Q01DX009 (ip), vehicle: Klucel (hydroxypropylcellulose) (HPC)): 107 % of control
- T/C (dose: 200.0 mg/kg/injection, schedule: Q01DX009 (ip), vehicle: Klucel (hydroxypropylcellulose) (HPC)): 102 % of control

Compound: CCN(CC)P(=O)(N1CC1)N1CC1
- T/C (dose: 16.5 mg/kg/injection, schedule: Q04DX003 (ip), vehicle: saline): 272 % of control
- T/C [5]: 90 % of control

Compound: O=S1(=O)CC(O)C(Cl)C1 (stereo not drawn)
- T/C (dose: 100.0 mg/kg/injection, schedule: Q01DX001 (ip), vehicle: saline): 104 % of control
- T/C (dose: 100.0 mg/kg/injection, schedule: Q04DX003 (ip), vehicle: Klucel (hydroxypropylcellulose) (HPC)): 100 % of control
- T/C (dose: 200.0 mg/kg/injection, schedule: Q01DX001 (ip), vehicle: saline): 100 % of control
- T/C (dose: 200.0 mg/kg/injection, schedule: Q04DX003 (ip), vehicle: Klucel (hydroxypropylcellulose) (HPC)): 100 % of control
- T/C (dose: 400.0 mg/kg/injection, schedule: Q04DX003 (ip), vehicle: Klucel (hydroxypropylcellulose) (HPC)): 100 % of control

Compound: O=C(C=C(C(F)(F)F)C(F)(F)F)c1ccc(Br)cc1
- T/C (dose: 5.56 mg/kg/injection, schedule: Q01DX009 (ip), vehicle: other): 113 % of control
- T/C (dose: 8.33 mg/kg/injection, schedule: Q01DX009 (ip), vehicle: other): 113 % of control
- T/C (dose: 12.5 mg/kg/injection, schedule: Q01DX009 (ip), vehicle: other): 109 % of control
- T/C (dose: 18.7 mg/kg/injection, schedule: Q01DX009 (ip), vehicle: other): 109 % of control

Compound: O=C(CCN1CCCCC1)c1ccccc1
- T/C (dose: 12.5 mg/kg/injection, schedule: Q01DX009 (ip), vehicle: saline): 89 % of control
- T/C (dose: 25.0 mg/kg/injection, schedule: Q01DX009 (ip), vehicle: saline): 95 % of control
- T/C [5]: 95 % of control

Compound: O=C(/C=C/c1ccccc1)c1ccccc1
- T/C [1]: 106 % of control
- T/C [2]: 104 % of control
- T/C [3]: 108 % of control
- T/C [4]: 109 % of control

Compound: O=C(CSc1cc(-c2ccc(Cl)cc2)s[s+]1)c1ccccc1
- T/C [1]: 101 % of control
- T/C [2]: 109 % of control
- T/C (dose: 100.0 mg/kg/injection, schedule: Q04DX003 (ip), vehicle: saline with Tween-80): 114 % of control
- T/C [3]: 113 % of control
- T/C (dose: 200.0 mg/kg/injection, schedule: Q04DX003 (ip), vehicle: saline with Tween-80): 114 % of control
- T/C [4]: 113 % of control
- T/C (dose: 400.0 mg/kg/injection, schedule: Q04DX003 (ip), vehicle: saline with Tween-80): 93 % of control

Compound: O=CNNS(=O)(=O)/C=C/c1ccccc1
- T/C (dose: 12.5 mg/kg/injection, schedule: Q01DX009 (ip), vehicle: distilled water + Tween-80): 106 % of control
- T/C (dose: 25.0 mg/kg/injection, schedule: Q01DX009 (ip), vehicle: distilled water + Tween-80): 105 % of control
- T/C (dose: 50.0 mg/kg/injection, schedule: Q01DX009 (ip), vehicle: distilled water + Tween-80): 102 % of control
- T/C (dose: 100.0 mg/kg/injection, schedule: Q01DX009 (ip), vehicle: distilled water + Tween-80): 89 % of control
- T/C (dose: 200.0 mg/kg/injection, schedule: Q01DX009 (ip), vehicle: distilled water + Tween-80): 89 % of control

Compound: CC(=O)OCc1ccc(Cl)cc1
- T/C [1]: 116 % of control
- T/C [2]: 112 % of control
